This is an account of results in BindingDB's records for doi:10.1021/jm050654o (University of Bari Aldo Moro, 2005).

In general, EC50 refers to the concentration at which the effect is half-maximal. A lower EC50 goes with a more potent agent.

This assay in a line: Antiproliferative activity mediated by sigma 1 receptor in rat C6 glioma cells by MTT assay. A general note: Formazan colour is commonly taken as a measure of viable cells.
`COc1ccc2c(CCCN3CCCC(C)(C)C3)cccc2c1` gave a concentration for a half-maximal effect (EC50) of 40.2 µM. That is a double-digit micromolar value.
With `CCCN(CCC)CCc1ccc(OC)c(OCCc2ccccc2)c1` the figure was 10.7 µM; with `COc1ccc2c(CCCCN3CCCCC3)cccc2c1`, 19.4 µM; with `COc1ccc2c(CCCCN3CCC(C)CC3)cccc2c1`, 25.5 µM.
Take `COc1ccc2c(CCCCN3CCCC(C)(C)C3)cccc2c1`: it took 15 µM to reach a half-maximal effect (EC50).
